From PubChem BioAssay AID1996 come the findings set out here.

Converted amounts (≈) assume the structure as drawn. Some results are limits rather than exact numbers.

For this series the following is noted: buffer; pH 7.4; 200.0 µM.
The kinetic solubility is solubility judged after dilution from a stock solution rather than from solid. Consider `CN(c1ccccc1C(=O)NCc1ccccc1Cl)S(=O)(=O)c1ccccc1`, for which the kinetic solubility is 31.3 µg/mL (≈ 75.4 µM). The value for `CS(=O)(=O)N1CCC(C(=O)N2CCN(Cc3ccccc3)CC2)CC1` was above 54.8 µg/mL; that for `Cc1onc(-c2ccccc2Cl)c1C(=O)N1CC(C)CC(C)C1` (centres undefined) was above 49.9 µg/mL. For `Cn1c(=O)n(C)c2cc(NC(=O)CSc3ccccc3)ccc21`, the solubility (kinetic) is above 49.1 µg/mL. `N#Cc1ccc(CSc2ccccn2)c(Cl)c1`: the kinetic solubility was found to be 3.4 µg/mL (≈ 13 µM).

`CCCCCCCn1c(=O)c(C(=O)OC)c(N)c2ccccc21` had a solubility (kinetic) below 0.3 µg/mL. Under `c1ccc(N2CCN(CC3CCCCC3)CC2)cc1` stands 17 µg/mL (≈ 65.8 µM). `CCCCN(CC(=O)NCc1ccc(F)cc1)C(=O)c1ccco1`: the kinetic solubility stood at 48.5 µg/mL (≈ 146 µM). The value for `CC1CNCCN1S(=O)(=O)c1cccc2cnccc12.Cl` (centres undefined) was above 54.6 µg/mL; that for `C=CCSc1nc(C)c(CC(=C)C)c(=O)[nH]1` was 32.2 µg/mL (≈ 136 µM). The value for `Cc1cc(NC(=O)CSc2nc3c(C)cccc3cc2C)no1` was below 0.2 µg/mL; that for `CCOC(=O)c1nc2c(=O)n(C)c(=O)n(C)c2n(C)c1=O` was above 44.1 µg/mL; that for `Cc1nnc(Cn2cnc3c2c(=O)n(C)c(=O)n3C)o1` was above 41.4 µg/mL. In turn, `COc1ccccc1-n1ccnc1SCC(=O)NC1CCCC1` gave a kinetic solubility of 45.3 µg/mL (≈ 137 µM). Under `CCCN(c1ccc(C)cc1)c1nc(=O)c2cccnc2s1` stands 3 µg/mL (≈ 9.63 µM). `FC(F)Oc1ccc(NC(=S)NC2CCCCCCC2)cc1` returned a solubility (kinetic) of 0.7 µg/mL (≈ 2.13 µM). Under `CCc1cc(=O)oc2cc(OCC(=O)N3CC[C@@]4(O)CCCC[C@H]4C3)ccc12` stands above 57.8 µg/mL; under `COc1ccc2nc(SC)c(C#N)cc2c1`, below 0.2 µg/mL. The value for `CC(=O)N1CCN(c2ccc(C(N)=O)cc2[N+](=O)[O-])CC1` was above 43.8 µg/mL; that for `COc1cc(NC(C)CCc2ccccc2)cc(OC)c1OC` (centres undefined) was above 47.3 µg/mL. `O=S(=O)(NC(=S)Nc1ccccc1)c1ccc(F)cc1` returned a solubility (kinetic) above 46.6 µg/mL.

Consider `CCNC(=O)CC1C(=O)N(CC)C(=S)N1NC(=O)c1cccnc1` (centres undefined), for which the solubility (kinetic) was above 52.4 µg/mL. The value for `COc1ccc(/C=C/C(=O)N2CCN(c3ccccn3)CC2)cc1` was 13.9 µg/mL (≈ 43 µM); that for `COc1ccc(C(=O)NC(Cc2c[nH]c3ccccc23)C(=O)O)cc1` (centres undefined) was above 50.8 µg/mL; that for `Clc1ccc2scc(CN3CCCC3)c2c1` was 35.3 µg/mL (≈ 140 µM). Under `Cc1ccc(SCC(=O)Nc2cc(S(=O)(=O)N3CCCCC3)ccc2C)cc1` stands 9.9 µg/mL (≈ 23.7 µM); under `COc1ccccc1C(=O)NC(=O)Nc1c(C)cc(C)cc1C`, 0.7 µg/mL (≈ 2.24 µM). The value for `Cc1ccc(NC(=O)CS(=O)c2ccccc2N)c(C)c1` (centres undefined) was above 45.4 µg/mL; that for `Cc1csc(NC(=O)COc2ccc3c(c2)CCC3)n1` was 6.9 µg/mL (≈ 23.9 µM); that for `O=C(NC(=S)Nc1cccc(-c2ccc(CO)o2)c1)c1cccs1` was 4.7 µg/mL (≈ 13.1 µM). Take `Nc1ncnc2c1ncn2C1OC(C(=O)NC2CC2)C(O)C1O` (centres undefined): the solubility (kinetic) is above 48 µg/mL. Under `COC(=O)c1scc(S(=O)(=O)c2ccccc2)c1N` stands 1.9 µg/mL (≈ 6.39 µM). The value for `O=C(CCCc1ccccc1)N1CCN(C2CCCCC2)CC1` was 46.6 µg/mL (≈ 148 µM); that for `ONC(=Nc1ccccc1Cl)c1c(F)cccc1F` was 19 µg/mL (≈ 67.2 µM); that for `COc1ccc(N2CCN(C(=O)c3cccnc3)CC2)c([N+](=O)[O-])c1` was 36.6 µg/mL (≈ 107 µM). For `O=C(O)CN1C(=O)CSC1=S`, the kinetic solubility was above 28.7 µg/mL. The value for `O=C(O)CSc1cccnc1Sc1ccc(Cl)cc1` was above 46.8 µg/mL. Under `O=C(Nc1nccs1)c1ccc[nH]c1=O` stands above 33.2 µg/mL; under `O=C(C1CCN(S(=O)(=O)c2ccccc2)CC1)N1CCCCC1`, 50.4 µg/mL (≈ 150 µM); under `COCCNC(=O)c1ccccc1NC(=O)c1cccc([N+](=O)[O-])c1C`, 53.5 µg/mL (≈ 150 µM). In turn, `CN(C)c1cc[n+](CC(=O)Nc2ccccc2C(F)(F)F)cc1.[Cl-]` showed a solubility (kinetic) above 54 µg/mL. In turn, `O=C(Nc1cc2c(cc1[N+](=O)[O-])OCCO2)c1cccnc1` came in with a solubility (kinetic) of 5.1 µg/mL (≈ 16.9 µM). Under `COc1cc(/C=C/C(=O)Nc2cccnc2)cc(OC)c1OC` stands 40.9 µg/mL (≈ 130 µM). The value for `CCc1nc(N=C(N)N)nc2ccccc12` was 28 µg/mL (≈ 130 µM); that for `Cc1cccc(-c2nc(C#N)c(N3CCC(C)CC3)o2)c1` was below 0.2 µg/mL.

The compound `CCOC(=O)Cn1ccc(-c2ccccc2)c(C#N)c1=O` showed a kinetic solubility above 42.3 µg/mL. Regarding `CCOc1ccc2oc(C(=O)OCC(=O)NC3CC3)c(C)c2c1`, the solubility (kinetic) was 1.5 µg/mL (≈ 4.73 µM).

With `CC(=O)NCCc1nc2cc(NS(=O)(=O)c3ccccc3)ccc2n1C`, the kinetic solubility is above 55.9 µg/mL. `COc1ccc(C(=O)O/N=C(\N)Cc2cccs2)cc1OC` showed a kinetic solubility above 48.1 µg/mL.

As to `CC1(NC(=O)C2CCCCC2)CCS(=O)(=O)C1` (centres undefined), the solubility (kinetic) turned out to be 35.1 µg/mL (≈ 135 µM). Turning to `COc1ccc(/C=C/C(=O)Nc2cc(S(=O)(=O)N3CCOCC3)ccc2OC)cc1`, the kinetic solubility was 8 µg/mL (≈ 18.5 µM).

Compound `CC(C)CCNc1nc(N)c([N+](=O)[O-])c(NC2CCCCC2)n1` had a solubility (kinetic) below 0.1 µg/mL. In turn, `CN(C)C(=S)Nc1ccc2c(c1)OCCO2` came in with a solubility (kinetic) above 35.7 µg/mL. Under `O=C(NC1CCCC1)c1cc(=O)[nH]c2ccccc12` stands 33.6 µg/mL (≈ 131 µM).

`Cc1cccc(-c2nsc(SCC(=O)NCC3CCCO3)n2)c1` (centres undefined): the solubility (kinetic) is above 52.4 µg/mL.

In the case of `CC(=O)N1CCN(c2ccc(NC(=O)c3ccccc3)cc2)CC1`, the solubility (kinetic) worked out at 40.5 µg/mL (≈ 125 µM).

Take `Nc1ccccc1SCC(=O)Nc1ccc2c(c1)OCO2`: the solubility (kinetic) is above 45.4 µg/mL. Under `Cc1nc2ccc(NC(=O)c3ccc(Br)o3)cc2s1` stands 5.1 µg/mL (≈ 15.1 µM); under `COCCCNS(=O)(=O)c1cc2c3c(c1)C(C)C(=O)N3CCC2` (centres undefined), above 50.8 µg/mL; under `CC1CN2C(c3ccc([N+](=O)[O-])cc3)=CSC2=N1` (centres undefined), 26.3 µg/mL (≈ 101 µM). In turn, `FC(F)(F)c1ccccc1NC(=S)N1CCCCCC1` registered a solubility (kinetic) above 45.4 µg/mL.

In turn, `Cc1cc(NC(=O)c2sc3ccccc3c2O)no1` yielded a kinetic solubility above 41.1 µg/mL. Under `CN(C)CCCN1C(=O)CSC1c1ccc([N+](=O)[O-])cc1.Cl` (centres undefined) stands 47.6 µg/mL; under `CCOc1ccc(C(=O)Nc2cccc3ncccc23)cc1Cl`, 1.1 µg/mL (≈ 3.37 µM); under `COc1ccc(NS(=O)(=O)c2csc(C(N)=O)c2)cc1`, above 46.9 µg/mL.

`Cc1ccc(C)c(OCC(=O)O/N=C(\N)c2cccnc2)c1` gave a kinetic solubility of 11.2 µg/mL (≈ 37.4 µM).

In turn, `COC(=O)c1ccc(NC(=O)c2cccnc2)cc1` displayed a solubility (kinetic) above 38.4 µg/mL. Under `Cc1ccc(OCc2nc(-c3cccs3)no2)c([N+](=O)[O-])c1` stands 0.9 µg/mL (≈ 2.84 µM); under `COCCCNc1nc(N)c([N+](=O)[O-])c(NCc2ccccc2)n1`, 7.4 µg/mL (≈ 22.3 µM). The value for `CCOc1ccc(N2C(=O)CC(NCc3ccc(S(N)(=O)=O)cc3)C2=O)cc1` (centres undefined) was 48.7 µg/mL (≈ 121 µM); that for `Cc1ccc(CNC(=O)C2CSC3(C)CCC(=O)N23)cc1` (centres undefined) was above 45.7 µg/mL; that for `CCCC(=O)Nc1nc2c(C)c(Cl)ccc2s1` was below 0.3 µg/mL. For `COc1cccc2[nH]c(C(=O)NCC3CCCO3)cc12` (centres undefined), the solubility (kinetic) is above 41.1 µg/mL. Under `Cc1cc(C=C2C(=O)N(C)C(=S)N(C)C2=O)c(C)n1-c1cccnc1` stands 13.9 µg/mL (≈ 39.2 µM).
